Source: a melting point compilation (Tetko et al.; mined from patent text by program, amines drawn as free bases though some values may be those of a salt)

First: CC1(C)CCC(C)(C)c2cc(SCc3ccc(C(=O)O)cc3)ccc21
Second: CC1(C)CCC(C)(C)c2cc(C(COc3ccc(C(=O)O)c(O)c3)=NO)ccc21
The melting point of the first is lower: 169 to 170 °C for the first, 220 to 222 °C for the second.

Compared with `Cc1ccc(-c2ccc(-c3nnn(CCCCCCc4cccnc4)n3)cc2)cc1C`, `COc1cccc(-c2nc(-c3ccccc3)c3ncc(-c4cccnc4)cc3n2)c1` is higher in melting point: 63 to 64 °C for the first, 134 to 135 °C for the second.

Compared with `COC(=O)C12Cc3cc(Cl)ccc3C1=NNCO2` (stereo unspecified), `Cc1c(C(N)=O)ncn1-c1cccc(Cl)c1` is higher in melting point: 124 to 127 °C for the first, 179 to 181 °C for the second.

Compared with `CN1CC(CCN2CCN(c3ccccc3)CC2)c2nc3ccccc3n2C1=O` (stereo unspecified), `O=C1CN(Cc2ccccc2)CC2c3ccccc3CCCN12` (stereo unspecified) is lower in melting point: 144 to 146 °C for the first, 125 to 128 °C for the second.

First: CCOC(=O)C(Cc1ccccc1)NC(=O)COc1ccc(C2=NNC(=O)NC2)cc1Cl (stereo unspecified)
Second: CCOC(=O)C(=O)c1ccccc1Nc1c(Cl)cccc1Cl
The melting point of the first is higher: 180 to 181 °C for the first, 84 to 85.5 °C for the second.

First: CS(=O)(=O)Cc1cc(C(=O)C=NCCCCCCN=CC(=O)c2ccc(OCc3ccccc3)c(CS(C)(=O)=O)c2)ccc1OCc1ccccc1
Second: CCOC(=O)c1c(C(=O)O)c2c(OCc3ccccc3)ccc3c(CC)c(-c4ccc(OCc5ccccc5)cc4)c1n32
The melting point of the first is lower: 162 to 163 °C for the first, 171 to 173 °C for the second.

First: CC1=C(C#Cc2ccccc2/C=C/C(C)=C/C(=O)O)C(C)(C)CCC1
Second: CCOC(=O)C1=C(C)NC(C)=C(C(=O)OCC)C1c1ccccc1/C=C/C(=O)OC1CCCCC1C (stereo unspecified)
The melting point of the first is higher: 194 to 196 °C for the first, 165 to 166 °C for the second.

Compared with `O=C1c2c(O)ccc(O)c2C(=O)c2c(F)ccc(F)c21`, `CCOC(=O)c1ncn2c1C1C=CCN1C(=O)c1c(F)cccc1-2` (stereo unspecified) is lower in melting point: 301 to 304 °C for the first, 200 to 201 °C for the second.

First: O=C(Nc1nncs1)c1ccc2ccccc2c1
Second: CC1=CC(=O)C(C)(N=Nc2ccc3ccccc3c2)O1 (stereo unspecified)
The melting point of the first is higher: 197 to 199 °C for the first, 76 to 77 °C for the second.

First: O=C(Nc1ccc(C(F)(F)F)cc1)N1CCC2Cc3ccccc3C2=N1 (stereo unspecified)
Second: CCCCSc1cn(C)cc(-c2cccc(C(F)(F)F)c2)c1=O
The melting point of the first is higher: 122 to 124 °C for the first, 109 to 110 °C for the second.

First: O=C(O)c1cn(C2CCCCC2)c2c(F)c(F)c(F)cc2c1=O
Second: CC1(C(=O)c2c[nH]c3ncc(-c4cccc(N5CCOCC5)c4)nc23)CCCCC1
The melting point of the first is higher: 261 to 264 °C for the first, 208 to 209 °C for the second.

First: Cc1oc(-c2ccccc2)nc1COc1cccc(COc2cncc(CO)c2)c1
Second: COC(=O)Cc1nc(-c2ccccc2)c(-c2ccccc2)s1
The melting point of the first is higher: 145 to 146 °C for the first, 65 to 67 °C for the second.

First: Cc1cccc(C)c1CNc1cc(C(=O)O)cc2c1nc(C)n2C
Second: CCOC(=O)c1ccc2ccc(O)cc2c1
The melting point of the first is higher: 315 to 318 °C for the first, 155 to 156 °C for the second.

First: COC(=O)C1CCC2C3CCC4CC(=O)CCC4(C)C3C(NCCC(C)C)CC12C (stereo unspecified)
Second: C=C1CCC2C3Cc4ccc(O)cc4C2(CCN3CC2CC2)C1 (stereo unspecified)
The melting point of the first is lower: 86 to 89 °C for the first, 220 to 223 °C for the second.

First: Oc1ccc(-c2nsnc2Cl)cc1
Second: O=C(CCCCCCC(=O)c1ccc(O)cc1)c1ccc(O)cc1
The melting point of the first is lower: 135 to 136 °C for the first, 196 to 198 °C for the second.

Compared with `CC(C)C(N)CCCCCCCCC(C)(C)C(=O)O` (stereo unspecified), `CCCCCc1c(C(C)C)nc(C(C)C)c(C(O)CCCC)c1-c1ccc(F)cc1` (stereo unspecified) is lower in melting point: 156 to 159 °C for the first, 66 to 68 °C for the second.

First: CN1C(=O)C2(COc3cc4c(cc32)OCCO4)c2c(C#N)cccc21 (stereo unspecified)
Second: CC(C)(C)OCC1C(=O)C(C)(C)C(=O)N1c1ccc(C#N)c(Cl)c1 (stereo unspecified)
The melting point of the first is higher: 196 to 197 °C for the first, 124 to 125 °C for the second.

Compared with `COC(=O)c1cc2cc([N+](=O)[O-])c(OCc3ccccc3)cc2[nH]1`, `Nc1cc(Oc2ccccc2)ccc1[N+](=O)[O-]` is lower in melting point: 184 to 187 °C for the first, 72 °C for the second.

First: CCn1cc(C=CC(N)=O)c([N+](=O)[O-])n1
Second: COc1ccc2[nH]c(CC(C)C)c(/C=C/C(=O)c3ccncc3)c2c1
The melting point of the first is lower: 210 to 212 °C for the first, 217 to 218 °C for the second.

Compared with `CCC(O)=C1C(=O)OC(C)(C)OC1=O`, `COc1ccc2sc(=O)n(C(C)=O)c2c1` is higher in melting point: 43 to 46 °C for the first, 112 to 113 °C for the second.

Compared with `CCCCOc1nc(N)c2[nH]c(=O)n(CCN(C)Cc3cccc(CC(=O)O)c3)c2n1`, `CCCN(CCC)C1Cc2cccc3[nH]c(=O)n(c23)C1` (stereo unspecified) is higher in melting point: 164 to 166 °C for the first, 190 to 192 °C for the second.

Compared with `NC(=O)C(=O)c1cccc(Cl)c1Cl`, `CC(C)(C)[Si](C)(C)OC1CC(=O)c2cc(F)ccc21` (stereo unspecified) is lower in melting point: 213 to 214 °C for the first, 56 to 58 °C for the second.

First: COc1cc2c(cc1OCc1ccccc1)CCN(C(=O)CC13CC4CC(CC(C4)C1)C3)C2
Second: CC(C)CC(NC1OC(=O)C2C3C=CC(C3)C12)C(=O)OCc1ccccc1 (stereo unspecified)
The melting point of the first is higher: 133 to 135 °C for the first, 88 °C for the second.

First: CCOCc1nc2c(N)nc3ccccc3c2n1OC(C)C
Second: COS(=O)(=O)Oc1ccc(-c2cccc(-c3nc(C(C)C)[nH]c3-c3cccc(C)n3)c2)cc1
The melting point of the first is higher: 179 to 181 °C for the first, 95 to 105 °C for the second.

First: Nc1nc2c(c3c1ncn3Cc1cc(-c3ccc(F)cc3)no1)NCCC2
Second: COc1ccc(COC2C=C(C)C(=NN(C)C)CC(C)(C)C2OC)cc1 (stereo unspecified)
The melting point of the first is higher: 227 to 228 °C for the first, 71 to 72 °C for the second.

Compound `Cc1cc(C#N)cc(CNc2c(NC(C)C(C)(C)C)c(=O)c2=O)c1` (stereo unspecified) has a melting point of 244 to 247 °C.
